The text below walks through data of patent US20040023884A1, “Biologically active peptides from functional domains of bactericidal/permeability-increasing protein and uses thereof” (priority 1993, published 2004).

Ends that are not written are not given here.

One assay has as its system E. coli 0113 LPS. The assay can be described thus: Limulus Amoebocyte Lysate (LAL) inhibition assay. The format is biochemical. The following applies: for LAL (relative difference): alanine variant relative to BPI.2. How it is done:
BPI proteolytic fragments produced according to Example 1 were subjected to a Limulus Amoebocyte Lysate (LAL) inhibition assay to determine LPS binding properties of these fragments. Specifically, each of the fragments were mixed in Eppendorf tubes with a fixed concentration of E. coli 0113 LPS (4 ng/mL final concentration) and incubated at 37° C. for 3 hours with occasional shaking. Addition controls comprising rBPI23 at 0.05 μg/mL were also tested. Following incubation, 360 μL of Dulbecco's phosphate buffered saline (D-PBS; Grand Island Biological Co. (GIBCO), Long Island, N.Y.) were added per tube to obtain an LPS concentration of 200 pg/mL for the LAL assay. Each sample was then transferred into Immulon II strips (Dynatech, Chantilly, Va.) in volumes of 50 μl per well.
Limulus amoebocyte Lysate (Quantitative Chromogenic LAL kit, Whitaker Bioproducts, Inc., Walkersville, Md.) was added at 50 μL per well and the wells were incubated at room temperature for 25 minutes. Chromogenic substrate was then added at a volume of 100 μL per well and was well mixed. After incubation for 20 to 30 minutes at room temperature, the reaction was stopped with addition of 100 μL of 25% (v/v) acetic acid. Optical density at 405 nm was then measured in a multiplate reader (Model Vmax, […], Menlo Park, Calif.) with the results shown in FIG. 2 in terms of percent inhibition of LPS. In this Figure, the filled circle represents rBPI23; the open circle represents Asp-N fragment A3; the x represents Asp-N fragment A2, the filled square represents Asp-N fragment A4; the filled triangle represents Asp-N fragment A1A2; the open square represents Asp-N fragment A6a; the small open triangle represents CNBr fragment C3; and the small filled square represents CNBr fragment C1/C5.

The test system of assay [1] is E. coli 0111:B4 (smooth) bacteria. The assay is described as follows: Radial diffusion bactericidal assay, E. coli 0111:B4. It is filed as cell-based. To be noted: radial diffusion; PROBIT analysis; E. coli O111:B4 (smooth).
Assay [2] in a line: 3H-heparin binding assay (affinity and capacity). The following applies: for Heparin Capacity: heparin bound at saturation; for Kd: read-out: Heparin Affinity; for HEPCAP (x Fold change in activity): heparin binding capacity; for cpm ^3H-Heparin bound: 100 picomoles of each fragment per well, saturating 3H-heparin 20 μg/mL, mean of duplicate wells ± range. The procedure, abridged: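 Peptide fragments were bound to PVDF-membrane wells and incubated with 3H-heparin in blocking buffer for 1 h at 4 °C. After washing, bound radioactivity was quantified by liquid scintillation counting, with BSA background subtracted; rBPI23 served as positive control.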

Assay [3] has as its system rough mutant E. coli J5 bacteria. The assay is described as follows: Radial diffusion bactericidal assay, E. coli J5. It is filed as cell-based. To be noted: for pmol added to well to achieve a 30 mm^2 bactericidal zone, E. coli J5: radial diffusion, PROBIT analysis, E. coli J5 (rough). The procedure, abridged: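 Wells received 5 or 10 μL of BPI fragment, pre-incubated 3 h at 37 °C. The underlayer agarose carried washed log-phase organisms at 4×10^6 CFU/mL.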

A further assay deals with Staphylococcus aureus. The assay is described as follows: Radial diffusion bactericidal assay, Staphylococcus aureus. It is filed as cell-based. To be noted: radial diffusion; PROBIT analysis; S. aureus.
In a further assay the test system is RAW 264.7 cells. The assay can be described thus: LPS neutralization cellular proliferation assay, RAW 264.7 cells. The format is cell-based, mouse. The method in brief:
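Mouse RAW 264.7 cells were primed 24 h with 50U/mL mouse γ-interferon, then exposed about 15 h to E. coli O113 LPS in serum-free RPMI with or without BPI peptides at 25 ng/mL–50 μg/mL. Proliferation was quantified by [^3H]-thymidine uptake, 1 μCi/well, added at 5 h.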

The next assay concerns C. albicans. The assay is described as follows: Radial diffusion fungicidal assay, Candida albicans. The format is cell-based. The following applies: radial diffusion.
The subject of the next assay is Candida albicans. It is filed as cell-based.

As to AKISGKWKAQKRFLK [BPI.15], in the assay on E. coli 0113 LPS, the “LAL (relative difference)” value was “= (no difference in the LAL assay)”. In addition, the “pmol added to well to achieve a 30 mm^2 bactericidal zone, E. coli O111:B4” value (“pmol added to well … E. coli O111:B4” below) in assay [1] was “b (no detectable activity up to 5 μg/well)”. Besides, in assay [2], the “Heparin Capacity” value worked out at 145.4 ng and the Kd was 315 nM. The “pmol added to well to achieve a 30 mm^2 bactericidal zone, E. coli J5” value (“pmol added to well … E. coli J5” for short) in assay [3] is reported as 9,705.10 pmol.
For IKISGAWKAQKRFLK [BPI.20], the “LAL (relative difference)” value with E. coli 0113 LPS is “= (no difference in the LAL assay)”. Further, the “pmol added to well … E. coli O111:B4” value in assay [1] is reported as “b (no detectable activity up to 5 μg/well)”. Further, in assay [2] (relative to BPI.2), the “HEPCAP (x Fold change in activity)” value was “=1.0 x Fold”. Moreover, in assay [2], the “Heparin Capacity” value was 203.6 ng and the Kd was 485 nM. In addition, the “pmol added to well … E. coli J5” value in assay [3] is given as 3,451.40 pmol.
For IKISGKAKAQKRFLK [BPI.21], in the assay on E. coli 0113 LPS, the “LAL / LPS inhibition activity (in words)” value is recorded as “large decrease in activity”. Besides, the “pmol added to well … E. coli O111:B4” value in assay [1] is listed as “b (no detectable activity up to 5 μg/well)”. Besides, in assay [2], the “heparin binding capacity, fold lower than the unsubstituted peptide” value is listed as 4 fold; the “Heparin Capacity” value is listed as 50.9 ng; the Kd came to 231 nM. Also, the “fold reduction in bactericidal activity in the radial diffusion assay” value in assay [3] (alanine variant vs unsubstituted peptide) is given as “more than 10 fold”. Besides, the “pmol added to well … E. coli J5” value in assay [3] is listed as 27,647.60 pmol.
Consider IKISGKWKAQKRALK [BPI.26], for which the “LAL (relative difference)” value in the assay with E. coli 0113 LPS is listed as “= (no difference in the LAL assay)”. For the same molecule, the “pmol added to well … E. coli O111:B4” value in assay [1] was “b (no detectable activity up to 5 μg/well)”. For the same molecule, in assay [2], the “Heparin Capacity” value was 113.1 ng and the Kd is 231 nM. For the same molecule, the “pmol added to well … E. coli J5” value in assay [3] is 8,709.60 pmol.
For the molecule IKISAKWKAQKRFLK [BPI.19], the “LAL (relative difference)” value with E. coli 0113 LPS is “= (no difference in the LAL assay)”. In addition, the “pmol added to well … E. coli O111:B4” value in assay [1] is “b (no detectable activity up to 5 μg/well)”. The “HEPCAP (x Fold change in activity)” value in assay [2] (relative to BPI.2) is given as “=1.0 x Fold”. In assay [2], the “Heparin Capacity” value is given as 203.6 ng and the Kd is 266 nM. In assay [3], the “pmol added to well … E. coli J5” value is recorded as 2,187.80 pmol.
For the molecule KSKVGWLIQLWHKK [BPI.82], the “pmol added to well … E. coli O111:B4” value in assay [1] is reported as 3,681.30 pmol. Besides, in assay [2], the “Heparin Capacity” value came out at 163.1 ng and the Kd is 427 nM. Besides, in the assay on Staphylococcus aureus, the “pmol added to well to achieve a 30 mm^2 bactericidal zone, S. aureus” value was 11,027.00 pmol. In addition, in the assay on RAW 264.7 cells, the “EC50 (peptide concentration at which the growth inhibitory effect of LPS was reversed by 50%)” value was 0.8 ± 0.1 µg/mL and the “IC50 (peptide concentration at which RAW cell growth was inhibited by 50%)” value came out at 18.8 ± 0.8 µg/mL. Besides, in the assay on C. albicans, the “C. albicans: pmol required for 30 mm^2 zone” value is given as 518.43 pmol. In addition, the “pmol added to well … E. coli J5” value in assay [3] is listed as 171.32 pmol. The “MIC C. alb” value in the assay on Candida albicans was 3.13 µg/mL.
Consider IKISGKWKAQKRFLA [BPI.28], for which the “LAL (relative difference)” value in the assay with E. coli 0113 LPS is reported as “= (no difference in the LAL assay)”. Besides, the “pmol added to well … E. coli O111:B4” value in assay [1] is on record as “b (no detectable activity up to 5 μg/well)”. In assay [2], the “Heparin Capacity” value amounted to 156.6 ng and the Kd came out at 266 nM. The “pmol added to well … E. coli J5” value in assay [3] is given as 6,194.40 pmol.
For the molecule IKIAGKWKAQKRFLK [BPI.18], the “LAL (relative difference)” value with E. coli 0113 LPS is reported as “= (no difference in the LAL assay)”. Moreover, the “pmol added to well … E. coli O111:B4” value in assay [1] is recorded as “b (no detectable activity up to 5 μg/well)”. In assay [2], the “Heparin Capacity” value turned out to be 156.6 ng and the Kd is 381 nM. For the same molecule, the “pmol added to well … E. coli J5” value in assay [3] is 7,128.50 pmol.
For the molecule IKASGKWKAQKRFLK [BPI.17], in the assay with E. coli 0113 LPS, the “LAL / LPS inhibition activity (in words)” value was “moderate” and the “LAL (relative difference)” value is on record as “↓ (moderate)”. In addition, the “pmol added to well … E. coli O111:B4” value in assay [1] is on record as “b (no detectable activity up to 5 μg/well)”. For the same molecule, in assay [2], the “Heparin Capacity” value was 113.1 ng and the Kd came to 266 nM. In addition, in assay [3], the “pmol added to well … E. coli J5” value is reported as 15,836.70 pmol.
For the molecule IKISGKWKAQKRFAK [BPI.27], the “LAL (relative difference)” value in the assay on E. coli 0113 LPS is “= (no difference in the LAL assay)”. Moreover, in assay [1], the “pmol added to well … E. coli O111:B4” value was “b (no detectable activity up to 5 μg/well)”. In assay [2], the “Heparin Capacity” value was found to be 119.8 ng and the Kd turned out to be 204 nM. The “pmol added to well … E. coli J5” value in assay [3] was 5,754.40 pmol.
As to “A4: Asp-N fragment of rBPI23, residues 57-104 (DIREFQLPSSQISMVPNVGLKFSISNANIKISGKWKAQKRFLKMSGNF; UniProt P17213 88-135, looked up, fragment)”, the “amount required to inhibit the LAL assay, fold higher than 116-193 fragment / rBPI23” value in the assay with E. coli 0113 LPS worked out at 10 fold. Besides, the “cpm ^3H-Heparin bound” value in assay [2] was 33,159 ± 1.095 cpm.
In the case of IKISGKWKAQKAFLK [BPI.25], the “LAL (relative difference)” value in the assay with E. coli 0113 LPS was “= (no difference in the LAL assay)”. For the same molecule, in assay [1], the “pmol added to well … E. coli O111:B4” value was “b (no detectable activity up to 5 μg/well)”. Further, in assay [2], the “heparin binding capacity, fold lower than the unsubstituted peptide” value is given as roughly 2 fold; the “Heparin Capacity” value was 107.2 ng; the Kd turned out to be 346 nM. In assay [2] (heparin binding affinity, relative to BPI.2), the “HEPKd (x Fold change in activity)” value is given as “=1.0 x Fold”. Also, in assay [3], the “pmol added to well … E. coli J5” value is listed as 8,203.50 pmol.
Regarding IAISGKWKAQKRFLK [BPI.16], the “LAL (relative difference)” value in the assay on E. coli 0113 LPS is recorded as “= (no difference in the LAL assay)”. The “pmol added to well … E. coli O111:B4” value in assay [1] is “b (no detectable activity up to 5 μg/well)”. In addition, in assay [2], the “Heparin Capacity” value is recorded as 127.25 ng and the Kd amounted to 231 nM. Besides, the “pmol added to well … E. coli J5” value in assay [3] is recorded as 7,550.90 pmol.
Take “A1: Asp-N fragment of rBPI23, region 1-38 as printed in Table II (A1 A2 in Table I) (VNPGVVVRISQKGLDYASQQGTAALQKELKRIKIPDYS; Asp-N fragment; UniProt P17213 32-69, looked up, fragment)”: in the assay on E. coli 0113 LPS, the “amount required to inhibit the LAL assay, fold higher than 116-193 fragment / rBPI23” value is 10 fold. Also, in assay [2], the “cpm ^3H-Heparin bound” value is 17,002 ± 479 cpm.

B1: A6a: Asp-N fragment of rBPI23, residues 116-193 (protein)
chain: IKISGKWKAQKRFLKMSGNFDLSIEGMSISADLKLGSNPTSGKPTITCSSCSSHINSVHVHISKSKVGWLIQLFHKKI
Take B1: in the assay on E. coli 0113 LPS, the “LAL / LPS inhibition activity (in words)” value is “LAL inhibitory activity similar to intact rBPI23” and the “concentration giving complete inhibition of the LPS-induced LAL reaction” value worked out at 15 nM. The “cpm ^3H-Heparin bound” value in assay [2] is listed as 13,419 ± 309 cpm.

B2: C1,C5: unresolved mixture of CNBr fragments of rBPI23, residues 1-56 and 112-170 (protein)
chain 1: MRENMARGPCNAPRWVSLMVLVAIGTAVTAAVNPGVVVRISQKGLDYASQQGTAAL
chain 2: SNANIKISGKWKAQKRFLKMSGNFDLSIEGMSISADLKLGSNPTSGKPTITCSSCSSHI
modifications: non-natural residues
Regarding B2, the “IC50 relative to intact rBPI23 (fold higher)” value with E. coli 0113 LPS was “approximately 10 fold”. In the assay on E. coli 0113 LPS (read-out: IC50 of inhibition of the LPS-induced LAL reaction), the 50% inhibitory concentration (IC50) (commonly the concentration that inhibits the measured activity by half) was roughly 100 nM. Moreover, in assay [2], the “cpm ^3H-Heparin bound” value is recorded as 82,918 ± 4,462 cpm.
